Measurements published in PubChem BioAssay AID1982 (Sanford-Burnham Center for Chemical Genomics, 2009).
Active and inactive are the calls of the source. The rule behind the calls is not given here.

Assays:
Test in all cases: kinase panel binding selectivity, selectivity assay, biochemical, KINOMEscan (AID 1982)
FGFR4 = details: KINOMEscan 353-kinase binding panel, qPCR, at 10 µM, hits give low values
[1] = molecular target: Vascular endothelial growth factor receptor 1 (Homo sapiens) (UniProt P17948); details: KINOMEscan 353-kinase binding panel, qPCR; FLT1; at 10 µM; hits give low values
[2] = molecular target: Inhibitor of nuclear factor kappa-B kinase subunit epsilon (Homo sapiens) (UniProt Q14164); details: KINOMEscan 353-kinase binding panel, qPCR; IKK-epsilon; at 10 µM; hits give low values
[3] = molecular target: Tyrosine-protein kinase Yes (Homo sapiens) (UniProt P07947); details: KINOMEscan 353-kinase binding panel, qPCR, at 10 µM, hits give low values
[4] = molecular target: Casein kinase I isoform gamma-2 (Homo sapiens) (UniProt P78368); details: KINOMEscan 353-kinase binding panel, qPCR; CSNK1G2; at 10 µM; hits give low values
[5] = molecular target: Serine/threonine-protein kinase D3 (Homo sapiens) (UniProt O94806); details: KINOMEscan 353-kinase binding panel, qPCR; PRKD3; at 10 µM; hits give low values
[6] = molecular target: Serine/threonine-protein kinase pim-1 (Homo sapiens) (UniProt P11309); details: KINOMEscan 353-kinase binding panel, qPCR; PIM1; at 10 µM; hits give low values
[7] = molecular target: Tyrosine-protein kinase JAK3 (Homo sapiens) (UniProt P52333); details: KINOMEscan 353-kinase binding panel, qPCR; JAK3(Kin.Dom.2); at 10 µM; hits give low values
[8] = molecular target: cGMP-dependent protein kinase 1 (Homo sapiens) (UniProt Q13976); details: KINOMEscan 353-kinase binding panel, qPCR; PRKG1; at 10 µM; hits give low values
[9] = molecular target: Glycogen synthase kinase-3 alpha (Homo sapiens) (UniProt P49840); details: KINOMEscan 353-kinase binding panel, qPCR; GSK3A; at 10 µM; hits give low values
PCTK3 = details: KINOMEscan 353-kinase binding panel, qPCR, at 10 µM, hits give low values
ERK4 = details: KINOMEscan 353-kinase binding panel, qPCR, at 10 µM, hits give low values
EPHA3 = details: KINOMEscan 353-kinase binding panel, qPCR, at 10 µM, hits give low values
MKNK1 = details: KINOMEscan 353-kinase binding panel, qPCR, at 10 µM, hits give low values
STK16 = details: KINOMEscan 353-kinase binding panel, qPCR, at 10 µM, hits give low values
YANK2 = details: KINOMEscan 353-kinase binding panel, qPCR, at 10 µM, hits give low values
SNARK = details: KINOMEscan 353-kinase binding panel, qPCR, at 10 µM, hits give low values
[10] = molecular target: Ephrin type-A receptor 2 (Homo sapiens) (UniProt P29317); details: KINOMEscan 353-kinase binding panel, qPCR; EPHA2; at 10 µM; hits give low values
[11] = molecular target: Hepatocyte growth factor receptor (Homo sapiens) (UniProt P08581); details: KINOMEscan 353-kinase binding panel, qPCR; MET; at 10 µM; hits give low values
[12] = molecular target: Platelet-derived growth factor receptor beta (Homo sapiens) (UniProt P09619); details: KINOMEscan 353-kinase binding panel, qPCR; PDGFRB; at 10 µM; hits give low values
[13] = molecular target: MAP/microtubule affinity-regulating kinase 3 (Homo sapiens) (UniProt P27448); details: KINOMEscan 353-kinase binding panel, qPCR; MARK3; at 10 µM; hits give low values
[14] = molecular target: Dual specificity protein kinase CLK2 (Homo sapiens) (UniProt P49760); details: KINOMEscan 353-kinase binding panel, qPCR, at 10 µM, hits give low values
CSNK2A2 = details: KINOMEscan 353-kinase binding panel, qPCR, at 10 µM, hits give low values
[15] = molecular target: Rho-associated protein kinase 2 (Homo sapiens) (UniProt O75116); details: KINOMEscan 353-kinase binding panel, qPCR; ROCK2; at 10 µM; hits give low values
DDR1 = details: KINOMEscan 353-kinase binding panel, qPCR, at 10 µM, hits give low values
NEK5 = details: KINOMEscan 353-kinase binding panel, qPCR, at 10 µM, hits give low values
RIPK2 = details: KINOMEscan 353-kinase binding panel, qPCR, at 10 µM, hits give low values
EPHA7 = details: KINOMEscan 353-kinase binding panel, qPCR, at 10 µM, hits give low values
[16] = molecular target: cAMP-dependent protein kinase catalytic subunit PRKX (Homo sapiens) (UniProt P51817); details: KINOMEscan 353-kinase binding panel, qPCR, at 10 µM, hits give low values
[17] = molecular target: RAF proto-oncogene serine/threonine-protein kinase (Homo sapiens) (UniProt P04049); details: KINOMEscan 353-kinase binding panel, qPCR; RAF1; at 10 µM; hits give low values
[18] = molecular target: SRSF protein kinase 1 (Homo sapiens) (UniProt Q96SB4); details: KINOMEscan 353-kinase binding panel, qPCR; SRPK1; at 10 µM; hits give low values
RPS6KA1(Kin.Dom.1) = details: KINOMEscan 353-kinase binding panel, qPCR, at 10 µM, hits give low values

Sequence of Dual specificity protein kinase CLK2 (Homo sapiens) (P49760 whole entry, looked up): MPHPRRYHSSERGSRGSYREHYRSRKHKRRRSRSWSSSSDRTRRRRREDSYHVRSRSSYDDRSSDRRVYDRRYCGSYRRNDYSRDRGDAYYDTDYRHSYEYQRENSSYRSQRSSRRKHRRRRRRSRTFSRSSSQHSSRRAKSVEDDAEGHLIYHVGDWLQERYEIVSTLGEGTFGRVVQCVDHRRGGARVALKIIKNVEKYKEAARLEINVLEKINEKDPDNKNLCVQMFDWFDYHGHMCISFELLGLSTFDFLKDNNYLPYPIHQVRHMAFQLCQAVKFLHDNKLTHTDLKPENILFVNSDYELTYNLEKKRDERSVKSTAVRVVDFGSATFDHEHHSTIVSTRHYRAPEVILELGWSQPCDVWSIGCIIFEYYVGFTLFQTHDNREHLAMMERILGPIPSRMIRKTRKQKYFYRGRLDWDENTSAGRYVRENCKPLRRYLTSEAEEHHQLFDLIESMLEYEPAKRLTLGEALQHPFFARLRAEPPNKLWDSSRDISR
Sequence of Vascular endothelial growth factor receptor 1 (Homo sapiens) (P17948 whole entry, looked up): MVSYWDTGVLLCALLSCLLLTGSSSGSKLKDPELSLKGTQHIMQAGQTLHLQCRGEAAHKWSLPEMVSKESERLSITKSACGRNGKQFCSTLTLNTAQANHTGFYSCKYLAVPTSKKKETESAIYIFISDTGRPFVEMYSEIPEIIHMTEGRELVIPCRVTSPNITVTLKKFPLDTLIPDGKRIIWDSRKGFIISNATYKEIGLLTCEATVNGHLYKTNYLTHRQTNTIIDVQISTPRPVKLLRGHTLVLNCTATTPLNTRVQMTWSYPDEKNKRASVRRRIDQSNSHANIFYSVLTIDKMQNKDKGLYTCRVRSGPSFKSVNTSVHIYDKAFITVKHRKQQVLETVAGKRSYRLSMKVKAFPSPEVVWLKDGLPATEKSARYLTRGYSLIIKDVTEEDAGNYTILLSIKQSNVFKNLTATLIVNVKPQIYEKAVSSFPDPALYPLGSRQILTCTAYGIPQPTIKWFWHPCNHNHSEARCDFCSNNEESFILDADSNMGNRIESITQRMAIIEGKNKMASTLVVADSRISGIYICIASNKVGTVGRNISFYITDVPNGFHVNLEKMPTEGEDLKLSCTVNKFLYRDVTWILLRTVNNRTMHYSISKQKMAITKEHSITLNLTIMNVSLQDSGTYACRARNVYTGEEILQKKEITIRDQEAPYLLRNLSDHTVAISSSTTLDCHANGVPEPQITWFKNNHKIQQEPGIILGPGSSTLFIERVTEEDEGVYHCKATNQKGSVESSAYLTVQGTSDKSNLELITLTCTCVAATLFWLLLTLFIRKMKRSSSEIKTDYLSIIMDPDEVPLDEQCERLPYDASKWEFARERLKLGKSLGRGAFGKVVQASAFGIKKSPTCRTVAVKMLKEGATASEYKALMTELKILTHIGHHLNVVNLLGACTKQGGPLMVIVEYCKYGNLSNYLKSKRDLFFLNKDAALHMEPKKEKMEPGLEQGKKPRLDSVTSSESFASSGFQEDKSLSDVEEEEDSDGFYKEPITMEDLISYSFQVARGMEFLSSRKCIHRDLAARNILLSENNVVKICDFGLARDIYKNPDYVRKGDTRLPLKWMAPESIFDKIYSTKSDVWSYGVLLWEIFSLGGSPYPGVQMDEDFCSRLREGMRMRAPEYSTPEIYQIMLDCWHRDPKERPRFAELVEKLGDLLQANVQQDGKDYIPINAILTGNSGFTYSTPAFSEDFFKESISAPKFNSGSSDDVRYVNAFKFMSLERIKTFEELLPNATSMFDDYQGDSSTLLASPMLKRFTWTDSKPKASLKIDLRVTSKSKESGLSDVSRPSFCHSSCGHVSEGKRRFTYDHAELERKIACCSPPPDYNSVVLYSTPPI
Sequence of Tyrosine-protein kinase Yes (Homo sapiens) (P07947 whole entry, looked up, canonical isoform): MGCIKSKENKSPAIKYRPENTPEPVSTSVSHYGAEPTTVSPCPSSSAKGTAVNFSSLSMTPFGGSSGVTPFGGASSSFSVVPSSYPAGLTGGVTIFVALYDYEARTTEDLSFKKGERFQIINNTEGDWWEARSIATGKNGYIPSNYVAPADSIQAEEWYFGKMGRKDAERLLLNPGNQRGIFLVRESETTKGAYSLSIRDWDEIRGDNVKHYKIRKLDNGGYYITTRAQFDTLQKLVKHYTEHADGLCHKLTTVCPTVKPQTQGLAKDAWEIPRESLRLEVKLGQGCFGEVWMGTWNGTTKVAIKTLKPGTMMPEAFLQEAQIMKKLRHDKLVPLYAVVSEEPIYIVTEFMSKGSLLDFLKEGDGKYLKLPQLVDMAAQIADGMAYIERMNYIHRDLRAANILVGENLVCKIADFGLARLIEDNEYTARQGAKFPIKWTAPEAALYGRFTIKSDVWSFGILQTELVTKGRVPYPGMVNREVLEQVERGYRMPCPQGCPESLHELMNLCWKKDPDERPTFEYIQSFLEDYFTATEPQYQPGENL
Sequence of cGMP-dependent protein kinase 1 (Homo sapiens) (Q13976 whole entry, looked up): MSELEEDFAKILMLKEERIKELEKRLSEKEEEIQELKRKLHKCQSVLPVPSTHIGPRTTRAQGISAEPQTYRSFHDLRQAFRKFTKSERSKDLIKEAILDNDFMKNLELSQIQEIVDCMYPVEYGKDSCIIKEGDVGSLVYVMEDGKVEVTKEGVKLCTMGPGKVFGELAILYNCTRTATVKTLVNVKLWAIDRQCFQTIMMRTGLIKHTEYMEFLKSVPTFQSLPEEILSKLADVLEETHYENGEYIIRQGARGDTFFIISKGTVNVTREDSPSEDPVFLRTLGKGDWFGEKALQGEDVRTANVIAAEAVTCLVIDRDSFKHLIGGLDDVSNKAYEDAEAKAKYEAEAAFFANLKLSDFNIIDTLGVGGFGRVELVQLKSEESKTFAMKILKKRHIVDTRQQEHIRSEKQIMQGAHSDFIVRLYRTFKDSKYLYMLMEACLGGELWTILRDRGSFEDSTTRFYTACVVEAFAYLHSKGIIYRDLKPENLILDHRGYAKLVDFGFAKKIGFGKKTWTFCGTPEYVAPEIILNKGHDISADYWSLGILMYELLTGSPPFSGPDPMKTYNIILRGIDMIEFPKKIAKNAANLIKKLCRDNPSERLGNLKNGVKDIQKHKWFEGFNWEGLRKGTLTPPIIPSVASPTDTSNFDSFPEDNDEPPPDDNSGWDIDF
Sequence of RAF proto-oncogene serine/threonine-protein kinase (Homo sapiens) (P04049 whole entry, looked up): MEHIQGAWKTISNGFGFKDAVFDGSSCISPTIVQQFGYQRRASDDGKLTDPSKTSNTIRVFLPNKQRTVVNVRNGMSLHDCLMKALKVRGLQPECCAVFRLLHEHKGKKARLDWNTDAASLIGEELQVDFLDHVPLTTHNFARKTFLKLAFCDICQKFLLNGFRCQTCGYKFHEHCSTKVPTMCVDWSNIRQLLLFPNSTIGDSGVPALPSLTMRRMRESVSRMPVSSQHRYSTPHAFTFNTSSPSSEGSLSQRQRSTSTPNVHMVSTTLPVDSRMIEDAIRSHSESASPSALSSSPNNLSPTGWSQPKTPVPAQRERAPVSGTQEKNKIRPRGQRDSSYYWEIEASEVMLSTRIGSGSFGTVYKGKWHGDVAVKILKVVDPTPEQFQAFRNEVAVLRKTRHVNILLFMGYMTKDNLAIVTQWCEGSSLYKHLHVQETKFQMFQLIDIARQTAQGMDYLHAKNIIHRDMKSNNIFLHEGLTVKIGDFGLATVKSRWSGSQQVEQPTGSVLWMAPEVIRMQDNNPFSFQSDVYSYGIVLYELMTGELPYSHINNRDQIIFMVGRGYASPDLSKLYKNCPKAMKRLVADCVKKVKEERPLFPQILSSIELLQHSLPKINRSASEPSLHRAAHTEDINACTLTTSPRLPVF
Sequence of Casein kinase I isoform gamma-2 (Homo sapiens) (P78368 whole entry, looked up, canonical isoform): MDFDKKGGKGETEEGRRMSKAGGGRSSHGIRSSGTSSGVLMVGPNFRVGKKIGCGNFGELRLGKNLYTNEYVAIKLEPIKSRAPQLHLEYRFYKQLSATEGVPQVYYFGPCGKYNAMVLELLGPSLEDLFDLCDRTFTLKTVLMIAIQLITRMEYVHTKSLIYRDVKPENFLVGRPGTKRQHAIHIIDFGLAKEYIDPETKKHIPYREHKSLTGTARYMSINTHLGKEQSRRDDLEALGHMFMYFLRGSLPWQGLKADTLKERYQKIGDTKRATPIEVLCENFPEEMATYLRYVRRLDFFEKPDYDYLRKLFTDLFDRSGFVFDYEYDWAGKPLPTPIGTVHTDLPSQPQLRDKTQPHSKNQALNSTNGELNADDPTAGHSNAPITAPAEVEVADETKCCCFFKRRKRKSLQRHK
Sequence of Serine/threonine-protein kinase pim-1 (Homo sapiens) (P11309 whole entry, looked up): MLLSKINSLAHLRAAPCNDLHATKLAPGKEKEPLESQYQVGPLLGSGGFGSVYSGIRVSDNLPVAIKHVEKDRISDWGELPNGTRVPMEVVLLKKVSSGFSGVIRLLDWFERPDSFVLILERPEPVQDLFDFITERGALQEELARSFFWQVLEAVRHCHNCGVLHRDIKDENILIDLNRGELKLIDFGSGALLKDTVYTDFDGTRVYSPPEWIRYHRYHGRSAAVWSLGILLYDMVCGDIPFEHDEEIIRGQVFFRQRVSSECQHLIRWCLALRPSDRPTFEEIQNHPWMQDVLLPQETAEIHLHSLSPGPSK
Sequence of cAMP-dependent protein kinase catalytic subunit PRKX (Homo sapiens) (P51817 whole entry, looked up): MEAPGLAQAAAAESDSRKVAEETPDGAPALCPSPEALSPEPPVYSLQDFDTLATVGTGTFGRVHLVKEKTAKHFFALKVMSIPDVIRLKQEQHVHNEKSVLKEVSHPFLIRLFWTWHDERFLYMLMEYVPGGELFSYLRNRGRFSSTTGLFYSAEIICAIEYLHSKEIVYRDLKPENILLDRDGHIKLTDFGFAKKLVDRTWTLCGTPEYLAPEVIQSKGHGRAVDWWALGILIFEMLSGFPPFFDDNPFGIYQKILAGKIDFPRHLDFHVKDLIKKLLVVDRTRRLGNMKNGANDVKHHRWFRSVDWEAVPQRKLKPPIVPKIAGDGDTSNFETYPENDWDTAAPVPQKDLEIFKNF

percent of control binding (FGFR4): 81% (inactive)
percent of control binding [1]: 100% (inactive)
percent of control binding [2]: 86% (inactive)
percent of control binding [3]: 100% (inactive)
percent of control binding [4]: 100% (inactive)
percent of control binding [5]: 100% (inactive)
percent of control binding [6]: 100% (inactive)
percent of control binding [7]: 100% (inactive)
percent of control binding [8]: 100% (inactive)
percent of control binding [9]: 99% (inactive)
percent of control binding (PCTK3): 82% (inactive)
percent of control binding (ERK4): 100% (inactive)
percent of control binding (EPHA3): 84% (inactive)
percent of control binding (MKNK1): 75% (inactive)
percent of control binding (STK16): 77% (inactive)
percent of control binding (YANK2): 100% (inactive)
percent of control binding (SNARK): 80% (inactive)
percent of control binding [10]: 100% (inactive)
percent of control binding [11]: 97% (inactive)
percent of control binding [12]: 87% (inactive)
percent of control binding [13]: 100% (inactive)
percent of control binding [14]: 80% (inactive)
percent of control binding (CSNK2A2): 98% (inactive)
percent of control binding [15]: 59% (inactive)
percent of control binding (DDR1): 100% (inactive)
percent of control binding (NEK5): 91% (inactive)
percent of control binding (RIPK2): 83% (inactive)
percent of control binding (EPHA7): 87% (inactive)
percent of control binding [16]: 100% (inactive)
percent of control binding [17]: 43% (inactive)
percent of control binding [18]: 100% (inactive)
percent of control binding (RPS6KA1(Kin.Dom.1)): 59% (inactive)
SMILES: Cc1cc2nc(NCCCO)n(CC(=O)c3cc(C(C)(C)C)c(O)c(C(C)(C)C)c3)c2cc1C
